Experimental data published in PubChem BioAssay (NCI).
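Grown in 96-well plates, cells were treated for 48 hours with each compound at five concentrations. Insufficient inhibition: endpoint recorded as highest concentration tested. GI50: concentration for 50% inhibition of growth. The concentration for full growth arrest is given as TGI.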

Legend:
Assay in all cases: DTP human tumour cell line panel, 48 h
[1] = system: CAKI-1 renal
[2] = system: COLO 205 colon
[3] = system: HCT-15 colon
[4] = system: LOX IMVI melanoma
[5] = system: OVCAR-3 ovarian
[6] = system: SF-295 CNS
[7] = system: RPMI-8226 leukemia
[8] = system: MCF7 breast
[9] = system: MDA-MB-231 breast
[10] = system: NCI/ADR-RES ovarian

CCOC(=O)c1cc(=O)n(C)c(=O)n1C
TGI [1]: > 100 µM
TGI [2]: > 100 µM
TGI [3]: > 100 µM
TGI [4]: > 100 µM
TGI [5]: > 100 µM
TGI [6]: > 100 µM

N#Cc1c2ccccc2c(Cc2ccc3c(c2)OCCOCCOCCOCCOCCO3)c2ccccc12
TGI [1]: 22.2 µM
TGI [3]: 19.2 µM
TGI [4]: 22.6 µM
TGI [5]: 16.4 µM
TGI [7]: > 100 µM
TGI [6]: 21.3 µM

Brc1ccccc2cc(-c3ccccc3)nc1-2
TGI [1]: 44.7 µM
TGI [2]: 15.8 µM
TGI [3]: 17.1 µM
TGI [4]: 21.4 µM
TGI [8]: 64.8 µM
TGI [9]: > 42.3 µM
TGI [10]: 44.6 µM
TGI [5]: 12.3 µM
TGI [7]: 29.7 µM
TGI [6]: 48.9 µM

COC(=O)[C@]12CC[C@@H](C)[C@H](C)[C@@H]1C1=CC[C@@H]3[C@@]4(C)C(C=O)=C[C@@](C)(CO)[C@@H]4[C@H](O)C[C@@]3(C)[C@]1(C)CC2
GI50 [1]: 3.71 µM
TGI [1]: 16.8 µM
GI50 [2]: 2.17 µM
TGI [2]: 4.93 µM
GI50 [3]: 2.11 µM
TGI [3]: 6 µM
GI50 [4]: 2.77 µM
TGI [4]: 11.2 µM
GI50 [8]: 2.44 µM
TGI [8]: 10.3 µM
GI50 [9]: 7.86 µM
TGI [9]: 22.3 µM
GI50 [10]: 4.12 µM
TGI [10]: 34.6 µM
GI50 [5]: 2.54 µM
TGI [5]: 7.78 µM
GI50 [7]: 2.44 µM
TGI [7]: 7.74 µM
GI50 [6]: 3.94 µM
TGI [6]: 16.5 µM

O=S(=O)(NC1=NCCN1C(=S)SN1CCn2c1nsc2=S)c1ccc(Oc2ccccc2)cc1
GI50 [1]: > 100 µM
TGI [1]: > 100 µM
GI50 [2]: > 100 µM
TGI [2]: > 100 µM
GI50 [3]: 72.1 µM
TGI [3]: > 100 µM
GI50 [4]: 51 µM
TGI [4]: > 100 µM
GI50 [8]: 25.7 µM
TGI [8]: > 100 µM
GI50 [9]: 37.8 µM
TGI [9]: > 100 µM
GI50 [10]: 77.4 µM
TGI [10]: > 100 µM
GI50 [5]: > 100 µM
TGI [5]: > 100 µM
GI50 [7]: 30.2 µM
TGI [7]: > 100 µM
GI50 [6]: > 100 µM
TGI [6]: > 100 µM

Cc1ccccc1NC(=O)Cc1nc2ccccc2s1
TGI [1]: 36.8 µM
TGI [2]: > 100 µM
TGI [4]: 30.5 µM
TGI [5]: 32 µM
TGI [6]: 29.2 µM

O=S1(=O)c2ccccc2N(c2ccccc2)c2nnnn21
TGI [1]: 36.9 µM
TGI [2]: 48.5 µM
TGI [3]: 37.8 µM
TGI [4]: 32.6 µM
TGI [8]: > 100 µM
TGI [9]: 72.4 µM
TGI [10]: > 100 µM
TGI [5]: 47.2 µM
TGI [6]: > 100 µM

O=C(Oc1ccccc1)N(c1ccccc1)c1ccccc1
GI50 [1]: 12.1 µM
TGI [1]: 37.6 µM
GI50 [2]: 19.5 µM
TGI [2]: 44.7 µM
GI50 [3]: 31.1 µM
TGI [3]: > 100 µM
GI50 [4]: 19.9 µM
TGI [4]: 78.6 µM
GI50 [9]: 28 µM
TGI [9]: > 100 µM
GI50 [10]: 21.8 µM
TGI [10]: 72.2 µM
GI50 [5]: 23.7 µM
TGI [5]: > 100 µM
GI50 [6]: 18.8 µM
TGI [6]: 58.7 µM

CCOC(=O)C1=C(OC(OCC)C([Se]c2ccccc2)C(C)C)CCC1 (centres undefined)
TGI [1]: > 100 µM
TGI [2]: 31.7 µM
TGI [3]: 29.4 µM
TGI [4]: 6.93 µM
TGI [5]: 40 µM
TGI [7]: 38.5 µM
TGI [6]: 44.5 µM
